# From patent US12573042B2, “Differentiation device, differentiation method for depression symptoms, determination method for level of depression symptoms, stratification method for depression patients, determination method for effects of treatment of depression symptoms, and brain activity training device” (ADVANCED TELECOMMUNICATIONS RESEARCH INSTITUTE INTERNATIONAL, priority 2017, dated 2026)
# Assays:
# Type in all cases: in vivo, human
# [1] = tested on: melancholic MDD patients; assay: Change of functional connectivities FC #1 and FC #2 (rs-fMRI) through antidepressant treatment
# Source text: Next, contribution to ΔWLS was considered for each functional connectivity in order to consider an influence of SSRI (escitalopram) on each of the 12 pairs of functional connectivities.
# Specifically, in preliminary and subsequent analysis of administration, the following numerical expression was used to calculate a contribution score of each functional connectivity.
# That is, si represents a difference in average connectivity strength between the healthy control group and the MDD group weighted by the weight of the classifier. […] Further, in Expression 2, FCi^MDD represents reduction (a negative sign through subtraction). […] In other words, the fact that ci becomes negative means that FCi after treatment becomes closer to the corresponding FC of a healthy individual. In contrast, the fact that ci becomes positive means that FCi after treatment becomes closer to the MDD. The numbers of members in the healthy control group and in the MDD group are different from each other, and thus the significant difference between ci and si for each FCi is evaluated by a Welch's t-test. The Welch's t-test is calculated in accordance with the following numerical expression.
# [2] = tested on: melancholic MDD patients; assay: WLS score (related weighted sum of 12 functional connectivities, rs-fMRI) before and after antidepressant administration; conditions: 24 remitted melancholic MDD patients, administered for 6 weeks to 8 weeks, FIG. 31c
# Description: In this manner, a regression expression for classifying a melancholic MDD patient and a healthy individual, namely, a classifier, was created. Further, a related weighted sum (the associated weighted linear sum: WLS) was calculated as an indicator for determining whether each subject has the melancholic MDD or is healthy.
# Next, whether an effect of escitalopram, which is a selective serotonin reuptake inhibitor (SSRI), can be evaluated by the WLS score was considered. A smoothed histogram of the WLS score of each of 24 remitted melancholic MDD patients shown in Table 1a, to whom escitalopram was administered for 6 weeks to 8 weeks, is shown in FIG. 31c.
# [3] = tested on: healthy subjects; assay: Change of FC #1 and FC #2 (rs-fMRI) on administration of SSRI to healthy subjects; conditions: 19 healthy subjects, single administration, p=0.033; no difference before (p=0.18)
# Source text: In a test by two-way analysis of variance, the functional connectivities of FC #1 and FC #2 have a significant temporal interaction through treatment (FC #number x time, F (1,23)=6.70, p=0.016), and a significant difference was not observed for each primary effect. […] In all the diagrams of FIG. 32 and FIG. 33, transition toward the positive direction indicates transition toward the direction of the melancholic MDD, whereas transition toward the negative direction indicates transition toward the direction of the healthy individual. This is because the sign of the weight of the melancholic MDD classifier was multiplied by the FC or the difference in FC. […] Eleven melancholic MDD patients (serotonin-norepinephrine reuptake inhibitor (SNRI) duloxetine was administered for 6 weeks to 8 weeks) gathered in Chiba were considered (FIG. 32c). […] Next, the changes of FC #1 and FC #2 at the time of administration of SSRI to healthy subjects (19 persons) were observed. […] There was no difference before treatment (p=0.18), and a significant relation was […] observed (FIG. 32d).
structure (smiles),measurement,setting,value
CNCC[C@H](Oc1cccc2ccccc12)c1cccs1 [duloxetine],difference between FC #1 and FC #2 after treatment,"[1]; 11 melancholic MDD patients of Chiba, administered for 6 weeks to 8 weeks, paired t-test p=0.10, before treatment n.s. p=0.77",difference in trend level
CN(C)CCC[C@@]1(c2ccc(F)cc2)OCc2cc(C#N)ccc21 [escitalopram],difference between FC #1 and FC #2 after treatment,"[1]; Hiroshima cohort, corresponding t-test p=0.002, no difference before treatment (p=0.96)",significant difference was observed after treatment
same,transition of FC #1 after treatment,"[1]; Hiroshima cohort, positive direction = direction of melancholic MDD",transitioned toward the positive direction
same,distribution of the WLS score after administration,[2],shifted toward the healthy control group
Fc1ccc([C@@H]2CCNC[C@H]2COc2ccc3c(c2)OCO3)cc1 [paroxetine],difference between FC #1 and FC #2 after administration,[3],significant difference between FC #1 and FC #2 was observed
